Assay results: US5229373A, “Use of exogenous gangliosides as a protective factor against toxicity by antitumor drug vincristine” (Fidia S.p.A., priority 1986, dated 1993)
Read-outs that look alike come from different tables or passages of the source.

Columns and labels:
mouse = test: Effect of gangliosides on acute Vincristine toxicity (acute lethality, single i.v. dose); assay type: in vivo; conditions: Vincristine 3.0 mg/kg e.v. alone
Procedure: The mice were subdivided into groups of not more than 8 in standard cages. Food and water were provided ad lib. The animals were housed in rooms under strictly controlled conditions.
1 mg of Vincristine was diluted to obtain the concentration necessary to inject 0.1 ml/10 g. body weight.
A solution of gangliosides was prepared by addition of sterile distilled water in a quantity sufficient to obtain a final concentration of 200 mg/kg in a volume of 0.2 ml. This dose was administrated to mice weighing about 20g.

[1] = Effect of ganglioside treatment on chronic Vincristine toxicity (lethality after sub-chronic pre-treatment or post-treatment); assay type: in vivo, mouse; conditions: mouse, in vivo, iv, Table 4, read-out: Mortality rate, %
Procedure: (§1) Male mice CD-1 (ICR) BR (Charles River, Italy) weighing 25-30 g were used for the whole experiment. The animals were housed in groups of 10 per cage and fed with standard laboratory chow and tap water ad libitum. The animals were housed at constant room temperature (21°±1° C.) and relative humidity (60%) with controlled cycles of light/dark (light from 8.00 a.m. to 8.00 p.m.).
(§2) Vincristine sulphate (Lilly) was dissolved in saline and injected i.v. in a dose volume of 10 ml/kg, whereas the gangliosides were solubilized in a phosphate buffer (0.01M; pH 7.5) containing 0.8% of NaCl and administered i.m. at a dose volume of 5 ml/kg.
(§3) The ganglioside mixture (or vehicle) was administered i.m. daily for 5 consecutive days at different doses (50, 100 and 200 mg/kg) and Vincristine was injected i.v. 5 hours after the last treatment with gangliosides (or vehicle) in doses of 2.4 and 2.6 mg/kg.
(§4) The ganglioside mixture (or vehicle) was administered i.m. in doses of 200 mg/kg 5 hours before i.v. treatment with Vincristine for 5 consecutive days
(§5) The doses of Vincristine were of 2.2, 2.4 and 2.6 mg/kg.
(§6) The mortality rate was estimated by the number of animals that died within the first 14 days of Vincristine treatment.
(§7) The statistical significance between mortality rates was assessed by means of Fisher's exact probability test.
(§8) The results of the tests are reported in Tables 3 and 4 and graphed in FIG. 1. On the basis of the mortality rate curve after administration of Vincristine, doses between 2 and 3 mg/kg were chosen for the investigation with gangliosides. The first experiment compared the effects of ganglioside treatment before and after Vincristine injection.
(§9) In the case of post-treatment, a single administration of gangliosides was given in order to exclude the possibility that the greater efficacy of pre-treatment with gangliosides in reducing Vincristine toxicity, might only be due to the last ganglioside injection.

Male mice CD-1 (ICR) BR = test: as above; assay type: in vivo, mouse; conditions: for Mortality rate: Table 3; for Mortality rate, No.: Table 4
Procedure: as §1, §2, §3, §4, §5, §6, §7, §8, §9

sarcoma S180 = test: Antitumoral effect of Vincristine with and without CRONASSIAL, sarcoma S180; assay type: in vivo, mouse; conditions: S180, host SN; VCR 0,5 mg/kg i.p. days 1-6
Procedure: Male Swiss Schneider mice weighing 27 g. were used for experiments on sarcoma S180.
This tumor has been transplanted into the same strain of mouse in this laboratory for over 10 years. The transplant was carried out by s.c.inoculation of 0.1 ml of a tumoral homogenate obtained by finely mincing viable tumoral tissue, passed repeatedly through a 26 gauge needle into a sterile Petri dish. 0.1 ml of Penicillin (20,000 u/ml) and streptomycin (20,000 u/ml) were added to the solution. 5 mg of Neomycin were also added.
(§10) A standard vial containing 1 mg of Vincristine was used. It was prepared with a suitable volume of diluting solution to give the final concentration required for injection into 0.1 ml/10 g. of body weight.
(§11) A solution of this substance, which is a mixture of four gangliosides, was prepared by adding a volume of sterile distilled water suffi- cient to give a concentration of 200 mg/kg in a volume of 0.2 ml. This dose is administered to mice weighing approximately 20 g.

melanoma B16 = test: Antitumoral effect of Vincristine with and without CRONASSIAL, melanoma B16; assay type: in vivo, mouse; conditions: B16, host C57B1; VCR 0,5 mg/kg i.p. days 1-4, 7-11
Procedure: Female C57 B1 mice weighing 20 g. were used for experiments on melanoma B16.
This tumor was prepared by inoculation in the same way as that used for sarcoma S180.
as §10, §11

leukemia L1210 = test: Antitumoral effect of Vincristine with and without CRONASSIAL, leukemia L1210; assay type: in vivo, mouse
Procedure: Male BDF1 mice weighing 30 g. were used for experiments on leukemia L1210.
Spleens were removed from the animals 7 days after inoculation of L1210 cells and were then finely minced with isotonic saline 1:100. 0.1 ml of this spleen and leukemia L1210 cell suspension was then injected s.c. into the flank of each BDF1 mouse.
as §10, §11

VCR-induced neuropathy = conditions: electrophysiology, studies in man; cited from earlier work
[2] = tested on: 3T3, neuroblastoma, glioma; conditions: exogenous addition; cited from earlier work
[3] = subchronic vehicle + VCR 2.4 mg/kg i.v.
[4] = subchronic vehicle + VCR 2.6 mg/kg i.v.

Molecule	No. Survivors at 30 days (mouse)	mortality at 336 h [1, 3]	mortality at 336 h [1, 4]	Mortality rate (Male mice CD-1 (ICR) BR; vehicle + VCR 2.4 mg/kg i.v.)	Mortality rate (Male mice CD-1 (ICR) BR; vehicle + VCR 2.6 mg/kg i.v.)	Mortality rate, No. (Male mice CD-1 (ICR) BR; [3])	Mortality rate, No. (Male mice CD-1 (ICR) BR; [4])	Mean tumor weight (sarcoma S180)	Mean tumor weight (melanoma B16)	Mean survival time (leukemia L1210; L1210, host BDF1, VCR 1,0 mg/kg i.p. days 1-3)	average survival time (leukemia L1210; L1210, Vincristine alone)	type of VCR-induced neuropathy (VCR-induced neuropathy)	cell growth and contact inhibition [2]
CC[C@]1(O)C[C@H]2CN(CCc3c([nH]c4ccccc34)[C@@](C(=O)OC)(c3cc4c(cc3OC)N(C=O)[C@H]3[C@@](O)(C(=O)OC)[C@H](OC(C)=O)[C@]5(CC)C=CCN6CC[C@]43[C@@H]65)C2)C1 [Vincristine]	2/8	38%	60%	7/10	5/10	19/50	30/50	0,64 g	1,46 g	7,8 gg.	7.8 days	dying-back type	–
II^3 NeuAcGgOse4 Cer [GM1]	–	–	–	–	–	–	–	–	–	–	–	–	inhibits cell growth and induces contact inhibition
